# Measured values published in ChEMBL document CHEMBL3596107, “Design, synthesis and evaluation of a series of acyclic fleximer nucleoside analogues with anti-coronavirus activity” (Bioorg Med Chem Lett, 2015).
# pEC50: −log10 of the molar value.
# Columns and labels:
# [1] = Cytotoxicity against mock-infected human HuH7 cells assessed as inhibition of cell survival after 2 days by CellTiter 96 AQueous Non-Radioactive Cell Proliferation Assay; type: cell-based; conditions: huh-7, 48 h
# [2] = Antiviral activity against SARS-CoV Frankfurt 1 infected in African green monkey Vero E6 cells assessed as inhibition of virus-induced cytopathic effect after 3 days by CellTiter 96 AQueous Non-Radioactive Cell Proliferation Assay; type: functional, cell-based, SARS coronavirus Frankfurt 1
# Vero = experiment: Cytotoxicity against mock-infected African green monkey Vero cells assessed as inhibition of cell survival after 3 days by CellTiter 96 AQueous Non-Radioactive Cell Proliferation Assay; type: cell-based; conditions: chlorocebus sabaeus, 72 h
# [3] = system: Middle East respiratory syndrome-related coronavirus; experiment: Antiviral activity against MERS-CoV EMC/2012 infected in human HuH7 cells assessed as inhibition of virus-induced cytopathic effect after 2 days by CellTiter 96 AQueous Non-Radioactive Cell Proliferation Assay; type: functional, cell-based; conditions: EMC/2012, Huh-7, 48 h
# [4] = Antiviral activity against Human coronavirus NL63 infected in African green monkey Vero118 cells assessed as inhibition of virus-induced cytopathic effect after 5 days by microscopic analysis; type: functional; conditions: Human coronavirus NL63, 120 h
# [5] = Cytotoxicity against mock-infected African green monkey Vero E6 cells assessed as inhibition of cell survival after 3 days by CellTiter 96 AQueous Non-Radioactive Cell Proliferation Assay; type: cell-based; conditions: chlorocebus sabaeus, vero c1008, 72 h
# [6] = Cytotoxicity against mock-infected African green monkey Vero118 cells assessed as inhibition of cell survival after 5 days by microscopic analysis; type: cell-based; conditions: chlorocebus sabaeus; for CC50: 120 h
# [7] = system: Middle East respiratory syndrome-related coronavirus; experiment: Antiviral activity against MERS-CoV EMC/2012 infected in African green monkey Vero cells assessed as inhibition of virus-induced cytopathic effect after 3 days by CellTiter 96 AQueous Non-Radioactive Cell Proliferation Assay; type: functional, cell-based; conditions: EMC/2012, Vero, 72 h
# SARS-CoV = experiment: Antiviral activity against SARS-CoV assessed as inhibition of viral replication; type: functional, Severe acute respiratory syndrome-related coronavirus
smiles,measurement,setting,value
Nc1nc2c(ncn2COCCO)c(=O)[nH]1 [ACYCLOVIR],CC50,[1],> 1000 µM
same,pEC50,"[2]; Severe acute respiratory syndrome-related coronavirus, Vero C1008, 72 h, read-out: EC50",< 3.00
same,CC50,Vero,> 1000 µM
same,pEC50,[3],< 3.00
same,pEC50,[4],< 4.00
same,CC50,[5],> 1000 µM
same,CC50 at 120 h,[6]; mock-infected Vero118 cells,> 100 µM
same,pEC50,[7],< 3.00
COc1nc(N)ncc1-c1cn(COCCO)cn1,CC50,[1],149 µM
same,EC50,[2]; vero e6,Not Active
same,CC50,Vero,71 µM
same,pEC50,[3],4.57
same,pEC50,[4],5.06
same,CC50,[5],138 µM
same,CC50,[6],120 µM
same,pEC50,[7],4.64
OCCOCn1cnc(-c2cnc(O)nc2O)c1,pEC50,[4],4.04
same,CC50,[6],> 200 µM
Nc1ncc(-c2cn(COCCO)cn2)c(O)n1,pEC50,[4],< 3.70
same,CC50,[6],> 200 µM
NC(=O)c1ncn([C@@H]2O[C@H](CO)[C@@H](O)[C@H]2O)n1 [RIBAVIRIN],INH,SARS-CoV,500 µg/mL
